In patent US20210403415A1, “COMPOUNDS AND METHODS TO ATTENUATE TUMOR PROGRESSION AND METASTASIS” (THE TRUSTEES OF INDIANA UNIVERSITY, priority 2018, published 2021):

Assays:
TEAD2 binding to Yap1 = target: T1, TEAD2 binding to Yap1 (Homo sapiens, UniProt Q15562); experiment: Fluorescence polarization, HIS-TEAD2 with FAM-Yap60-99 peptide; details: 24 h at 4° C.
T1 construct: TEAD2 (217-447) was expressed as N-terminal HIS-fusion protein; made in house; host or cells: E. coli BL-21 (DE3), pET-28a
Description: (§1) GST-TEAD4, GST-TEAD4 Cys367Ser mutant or HIS-TEAD2 interaction with Yap1 was investigated using a fluorescently-labeled peptide (FAM-Yap60-99), consisting of FAM-labeled TEAD-binding peptide fragment of Yap1 (FAM-[…] TVPMCLRKLPASFCKPP), which has a disulfide bridge (American Peptide, Sunnyvale, Calif.). Addition of FAM-Yap60-99 to the TEAD was followed by measurement of changes in polarization. 40 μL of 125 nM GST-TEAD4 WT or GST-TEAD4 Cys367Ser in assay buffer (PBS with 0.01% v/v Triton-X100) or 40 μL of 64 nM HIS-TEAD2 was added to a 384-well black polystyrene plate (Cat. No. 262260; Nunc, Roskilde, Denmark) and incubated with 5 μL of […] serially diluted compounds in assay buffer supplemented with 20% v/v DMSO for 24 h at 4° C. Finally, 5 μL of 160 nM FAM-Yap60-99 peptide was added, the plate centrifuged, and the polarization was measured on an Envision Multilabel Plate Reader (PerkinElmer, Waltham, Mass.) using a filter set with excitation and emission wavelengths of 485 and 535 nm, respectively. Percent inhibition was calculated as relative to a minimum inhibition control, which is without compound, and a maximum inhibition control, which is without a TEAD.

[1] = system: patient-derived GBM43 glioblastoma spheroids; experiment: GBM43 spheroid viability (Alamar blue); type: cell-based, human; details: three-dimensional spheroids
Description: Early-passage GBM43 cells were cultured in ultralow adherence plates (Corning Inc.) at 1 to 2×10^3 cells/mL in DMEM supplemented with 1% […] (Invitrogen), 2% B27 (Invitrogen), 25 ng/mL epidermal growth factor (EGF, 25 ng/mL fibroblast growth factor (FGF) (R&D Systems, Inc.), […], 2 ng/mL platelet growth factor, and 100 ng/mL each of penicillin and streptomycin (Invitrogen Inc.). Individual cells were recovered from spheres by incubation with Accutase (Sigma-Aldrich) for 10-15 minutes. Cells (50-100/well) were then seeded in fresh sphere-forming media in 96-well plates. After 2-3 days, Neurospheres containing 6 to 8 cells were treated with compounds 1, 2, and 5.
HEK-293 were cultured in DMEM with glutamine (Cellgro, Manassas, Va.) supplemented with 10% FBS and 1% penicillin/streptomycin in a 5% CO2 atmosphere at 37° C. Tumors were expanded by passage in the flank of NOD/SCIDγnull mice. To generate GBM43 cell lines, tumors were harvested, disaggregated, and maintained in 2.5% FBS for 14 days on Matrigel-coated plates (BD Biosciences) to remove murine fibroblasts. In-vitro GBM43 cell lines were propagated in DMEM with 10% FBS for no more than 7 passages. Cell line identity was confirmed by DNA fingerprint analysis (IDEXX BioResearch) for species and baseline short-tandem repeat analysis testing. GBM43 spheroids were generated by plating early-passage cells at 2.5×10^4 cells per well in 96-well ultralow attachment plates (Corning Inc.) in DMEM/F12 (1:1; GIBCO) supplemented with 2% B27 supplement (GIBCO), 20 ng/mL epidermal growth factor (EGF), and 20 ng/mL fibroblast growth factor (FGF) (Peprotech) for 2 days. The spheroids were then treated with compounds 1, 2, and 5 and growth analyzed by Alamar blue staining.

TEAD2 = TEAD2 (Homo sapiens, UniProt Q15562); details: cited from earlier work
TEAD4.Yap1 interaction = TEAD4.Yap1 interaction (Homo sapiens, UniProt Q15561); experiment: Fluorescence polarization, GST-TEAD4 with FAM-Yap60-99 peptide; type: binding; set-up: TEAD4 (217-434), TEAD4 (217-434) Cys367Ser mutant and Yap1 (Full-length) were expressed as GST-fusion proteins; made in house; host or cells: E. coli BL-21 (DE3), pGEX-6P-1; details: FP assay, 24 h at 4° C.
Description: as §1
For the determination of the inhibition efficiency kinact/K1, the protein compound incubation time was varied between […], prior to the addition of the FAM-Yap60-99 peptide and fluorescence polarization measurements. The progressive decrease in TEAD activities were plotted against time for all 10 concentrations ([…]) of the compounds and the observed rate of inhibition (kobs) was calculated by fitting a simple exponential function.
The observed rate of inhibition was then plotted against the concentration of the compound and a […] function kobs=kinact[Inhibitor]/K1+[Inhibitor] was fitted to determine the kinact and K1 values.

CTGF transcript levels = experiment: qRT-PCR of CTGF transcript in GBM43 cells; type: cell-based, human; details: FIG. 8C
TEAD4 [2] = target: T2, TEAD4 (Homo sapiens, UniProt Q15561); experiment: Whole protein ESI mass spectrometry, adduct formation; type: binding; set-up: TEAD4 (217-434), TEAD4 (217-434) Cys367Ser mutant and Yap1 (Full-length) were expressed as GST-fusion proteins; GST (N, cleaved yes); made in house; host or cells: E. coli BL-21 (DE3), pGEX-6P-1; details: 10 μM TEAD4, 200 μM compound, 24 h at 4° C.
Description: The samples were centrifuged at 20,000×g for […] to remove precipitants before being injected into an empty column on an Agilent 1200 liquid chromatography system (Agilent, Santa Clara, Calif.), using 80% Buffer A (H2O, 5 mM NH4OAc) and 20% Buffer B (ACN, 5 mM NH4OAc), and the masses were detected on an Agilent 6520 Accurate Mass Q-TOF.
It was determined whether a covalent bond formed between inventive compounds and TEAD4. […] The covalent adduct formation by compound 2 was relatively fast (FIG. 3G), reaching nearly 100% adduct formation after 30 min incubation with TEAD4. Because the rate of inhibition developed over a longer timescale (FIG. 3C), compound 2 is proposed to induce a slow conformational change in TEAD4 that prevents its interaction with Yap1. To rule out the possibility that compound 2 induces slow aggregation of TEAD4, and not the proposed slow conformational change, GST-TEAD4 was incubated with DMSO compound 2 for 24 h at 4° C., followed by injection into an SEC column (FIG. 3H). […] A slight increase in dimer formation for the TEAD4 sample incubated with compound 2 occurred compared to the sample incubated with DMSO. […] Furthermore, it is highly unlikely that Cys-367 oxidation was responsible for the lack of 100% inhibition at longer times since it has been shown that covalent bond formation is rapid and complete within less than an hour.
Target sequence in this assay (Q15561 217-434): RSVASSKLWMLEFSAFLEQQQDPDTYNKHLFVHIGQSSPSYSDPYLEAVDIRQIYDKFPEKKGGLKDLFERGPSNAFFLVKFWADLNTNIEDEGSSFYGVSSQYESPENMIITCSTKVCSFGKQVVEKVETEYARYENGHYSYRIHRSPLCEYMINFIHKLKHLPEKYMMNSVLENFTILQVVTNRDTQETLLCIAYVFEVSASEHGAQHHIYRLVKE

[3] = target: uPAR.uPA protein-protein interaction (Homo sapiens, UniProt Q03405); experiment: Fluorescence polarization, urokinase receptor with peptide AE147; type: binding; details: 24 h at 4° C.
From the text: (§2) The selectivity of the compounds was explored with two unrelated protein-protein interactions between (i) the urokinase receptor (uPAR) and its ligand urokinase (uPA); and (ii) the a subunit of the voltage-gated calcium channel Cav2.2 with its β subunit Cavβ3. […] Both proteins have cysteine residues capable of forming covalent adducts.
(§3) FIG. 4D illustrates BLI measurements of the binding of TEAD4 to captured Yap when biotin-labeled GST-Yap1 was captured onto streptavidin-conjugated biolayer interferometry sensors which were dipped into varying concentrations of TEAD4. (mean±s.d.; n=3). […] FIG. 4F illustrates measured fluorescence polarization when increasing concentration of HIS-TEAD2 was mixed with 16 nM FAM-Yap60-99 peptide (mean±s.d.; n=3). FIG. 4G illustrates measured fluorescence polarization when HIS-TEAD2 was incubated with increasing concentration of compounds for 24 h at 4° C. followed by addition of FAM-Yap60-99 (mean±s.d.; n=3). FIG. 4H illustrates measured fluorescence polarization when urokinase receptor (uPAR) was incubated with varying concentrations of compounds for 24 h at 4° C. followed by addition of a urokinase-derived fluorescently-labeled peptide AE147 (mean±s.d.; n=3). […]

[4] = target: Cav2.2 α·β protein-protein interaction (Homo sapiens, UniProt P54284); experiment: Fluorescence polarization, Cavβ3 with labeled α-subunit peptide; type: binding; details: 24 h at 4° C.
From the text: as §2, §3

TEAD4 [5] = target: T2, TEAD4; experiment: Covalent streptavidin pull down of myc-TEAD4 from HEK293 cell lysates; type: cell-based; set-up: expressed in transfected cells; host or cells: HEK293; details: added to cell lysates
Description: HEK293 cells transfected with the myc-TEAD4 construct were grown for 48 h and then treated with DMSO or with 25 μM of compound 2 for an additional 48 h. Cells were then harvested in lysis buffer (50 mM Tris-HCl, pH 7.3, 150 mM NaCl, 0.5 mM EDTA, 1% Triton X-100, PhosSTOP phosphatase inhibitor cocktail, and EDTA-free protease inhibitors cocktail). Cell lysates containing 2 mg of protein were incubated with the indicated compounds or DMSO for 24 h. Extracts were then incubated with Dynabeads M-280 Streptavidin (Sigma-Aldrich) for 2 h at 4° C. Dynabeads were then washed and bound proteins were denatured and eluted according to the manufacturer's instructions. Relative levels of myc-TEAD4 from each complex were measured by immunoblot analysis with the anti-c-Myc antibody (1:5,000, Sigma-Aldrich).
Target sequence in this assay (Q15561 whole entry, the tested form may be a part): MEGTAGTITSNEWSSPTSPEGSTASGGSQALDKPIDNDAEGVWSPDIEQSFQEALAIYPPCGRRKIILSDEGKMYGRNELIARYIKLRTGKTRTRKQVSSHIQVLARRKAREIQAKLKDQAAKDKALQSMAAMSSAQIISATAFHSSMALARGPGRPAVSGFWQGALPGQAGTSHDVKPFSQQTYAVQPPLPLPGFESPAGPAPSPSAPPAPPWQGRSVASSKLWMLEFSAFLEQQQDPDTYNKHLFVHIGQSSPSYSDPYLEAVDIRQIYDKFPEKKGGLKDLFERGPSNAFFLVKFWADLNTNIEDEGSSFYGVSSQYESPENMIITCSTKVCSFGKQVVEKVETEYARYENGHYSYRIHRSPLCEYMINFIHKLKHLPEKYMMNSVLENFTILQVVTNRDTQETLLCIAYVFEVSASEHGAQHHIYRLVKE

T1 sequence (Q15562 217-447): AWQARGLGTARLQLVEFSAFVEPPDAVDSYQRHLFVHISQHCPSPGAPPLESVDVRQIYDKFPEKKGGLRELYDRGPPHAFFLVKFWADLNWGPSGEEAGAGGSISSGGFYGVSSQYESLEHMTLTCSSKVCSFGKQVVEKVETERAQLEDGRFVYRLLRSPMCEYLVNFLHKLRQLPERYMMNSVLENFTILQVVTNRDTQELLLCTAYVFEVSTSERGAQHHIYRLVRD
TEAD4.Yap1 interaction, sequence (Q15561 217-434): as the sequence (Q15561 217-434) above
TEAD2, sequence (Q15562 whole entry, the tested form may be a part): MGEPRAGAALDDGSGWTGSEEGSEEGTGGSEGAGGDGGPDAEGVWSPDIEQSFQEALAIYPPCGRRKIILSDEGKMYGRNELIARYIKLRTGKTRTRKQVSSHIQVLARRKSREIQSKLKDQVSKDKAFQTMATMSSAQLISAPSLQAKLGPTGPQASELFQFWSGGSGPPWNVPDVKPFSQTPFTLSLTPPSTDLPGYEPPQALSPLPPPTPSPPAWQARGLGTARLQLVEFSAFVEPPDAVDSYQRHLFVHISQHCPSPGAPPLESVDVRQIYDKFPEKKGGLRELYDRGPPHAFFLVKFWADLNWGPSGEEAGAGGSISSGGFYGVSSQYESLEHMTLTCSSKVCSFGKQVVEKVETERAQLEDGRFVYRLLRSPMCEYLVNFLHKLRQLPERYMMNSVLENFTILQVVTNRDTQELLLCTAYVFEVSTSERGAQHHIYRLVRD
Cav2.2 α·β protein-protein interaction, sequence (P54284 whole entry): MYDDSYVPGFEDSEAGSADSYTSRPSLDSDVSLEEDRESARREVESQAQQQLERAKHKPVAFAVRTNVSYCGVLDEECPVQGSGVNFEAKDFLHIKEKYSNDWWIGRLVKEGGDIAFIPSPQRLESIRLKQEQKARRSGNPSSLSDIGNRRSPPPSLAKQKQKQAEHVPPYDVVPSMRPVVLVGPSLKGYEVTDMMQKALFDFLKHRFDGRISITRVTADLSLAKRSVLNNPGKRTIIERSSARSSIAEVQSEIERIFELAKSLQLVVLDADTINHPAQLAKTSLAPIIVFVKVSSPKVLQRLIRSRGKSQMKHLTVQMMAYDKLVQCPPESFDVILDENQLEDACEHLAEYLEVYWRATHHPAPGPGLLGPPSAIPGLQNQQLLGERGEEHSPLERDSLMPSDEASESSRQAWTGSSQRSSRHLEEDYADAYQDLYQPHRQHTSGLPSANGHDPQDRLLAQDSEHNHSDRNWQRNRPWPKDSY
uPAR.uPA protein-protein interaction, sequence (Q03405 23-305 limits assumed): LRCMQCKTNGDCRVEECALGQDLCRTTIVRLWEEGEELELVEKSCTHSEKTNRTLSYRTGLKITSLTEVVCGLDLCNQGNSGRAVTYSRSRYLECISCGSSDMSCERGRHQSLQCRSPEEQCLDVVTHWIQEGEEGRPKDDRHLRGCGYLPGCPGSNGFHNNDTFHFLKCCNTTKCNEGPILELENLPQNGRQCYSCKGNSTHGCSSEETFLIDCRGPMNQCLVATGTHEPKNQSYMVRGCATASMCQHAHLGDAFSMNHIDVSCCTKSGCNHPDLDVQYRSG

| Structure (SMILES) | inhibition of TEAD2 binding to Yap1 (TEAD2 binding to Yap1) | effect on GBM43 cancer cell viability / growth [1] | inhibition of TEAD binding to Yap (TEAD2) | binding to TEAD2 (TEAD2; two sites on TEAD2) | inhibition of TEAD4.Yap1 interaction (TEAD4.Yap1 interaction) | CTGF transcript levels versus vehicle (CTGF transcript levels) | covalent adduct formation with TEAD4 (TEAD4 [2]) | inhibition of uPAR.uPA interaction [3] | inhibition of Cav2.2 α·β interaction [4] | TEAD4 in streptavidin pull-down, immunoblot (TEAD4 [5]) |
| --- | --- | --- | --- | --- | --- | --- | --- | --- | --- | --- |
| O=C(O)c1ccccc1Nc1cccc(C(F)(F)F)c1 [Compound 1, 2-((3-(trifluoromethyl)phenyl)amino)benzoic acid, reference compound] | inactive | did not affect | did not inhibit | binds weakly | did not inhibit | no effect | – | – | – | – |
| CCC(=O)c1ccccc1Nc1cccc(C(F)(F)F)c1 [Compound 3, 1-(2-((3-(trifluoromethyl)phenyl)amino)phenyl)propan-1-one] | inactive | – | – | – | did not inhibit | – | no adduct formation | no inhibition | no inhibition | – |
| O=C(CCCCC1SCC2NC(=O)NC21)NCCOCCOCCCCCOc1cccc(Nc2ccccc2C(=O)CCl)c1 (stereo not drawn) [Compound 9, N-(2-(2-((5-(3-((2-(2-chloroacetyl)phenyl)amino)phenoxy)pentyl)oxy)ethoxy)ethyl)-5-(2-oxohexahydro-1H-thieno[3,4-d]imidazol-4-yl)pentanamide] | – | – | – | – | – | – | – | – | – | TEAD4 was specifically detected |
